# Assay results published in ChEMBL document CHEMBL1136175, “Synthesis and antimycobacterial activity of capuramycin analogues. Part 2: acylated derivatives of capuramycin-related compounds” (Bioorg Med Chem Lett, 2003).
# Experiments:
# [1] = test system: Mycobacterium intracellulare; experiment: Antimycobacterial activity against Mycobacterium intracellular ATCC 1954 E-3; assay type: functional
# Mycobacterium kansasii = experiment: Antimycobacterial activity against Mycobacterium kansasii ATCC 12478; assay type: functional
# [2] = test system: Mycolicibacterium smegmatis; experiment: Antimycobacterial activity was determined against Mycobacterium smegmatis SANK75075; assay type: functional
# [3] = biological target: T1, Phospho-N-acetylmuramoyl-pentapeptide-transferase (Escherichia coli K-12, UniProt P0A6W3); experiment: Inhibitory concentration required against Translocase I
# T1 sequence (P0A6W3 whole entry): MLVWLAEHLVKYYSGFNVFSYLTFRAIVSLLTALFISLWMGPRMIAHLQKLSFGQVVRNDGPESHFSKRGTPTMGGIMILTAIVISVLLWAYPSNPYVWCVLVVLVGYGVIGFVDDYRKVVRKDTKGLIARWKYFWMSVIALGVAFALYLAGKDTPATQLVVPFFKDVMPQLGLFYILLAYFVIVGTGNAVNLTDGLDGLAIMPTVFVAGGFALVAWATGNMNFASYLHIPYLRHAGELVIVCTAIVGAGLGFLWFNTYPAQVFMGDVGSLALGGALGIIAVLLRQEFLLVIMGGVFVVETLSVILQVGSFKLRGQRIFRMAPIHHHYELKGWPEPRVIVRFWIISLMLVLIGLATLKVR
# Mycobacterium avium = experiment: Antimycobacterial activity against Mycobacterium avium NIHJ1605; assay type: functional
Compound,MIC [1],MIC (Mycobacterium kansasii),MIC [2],IC50 [3],MIC (Mycobacterium avium)
CCCCCCCCCCCC(=O)O[C@@H]1[C@H](OC)[C@@H]([C@@H](O[C@H]2OC(C(=O)Nc3ccccc3)=C[C@H](O)[C@@H]2O)C(N)=O)O[C@H]1n1ccc(=O)[nH]c1=O,4 µg/mL,8 µg/mL,6.25 µg/mL,> 3490 nM,1 µg/mL
CCCCCCC(=O)O[C@@H]1[C@H](OC)[C@@H]([C@@H](O[C@H]2OC(C(=O)Nc3ccccc3)=C[C@H](O)[C@@H]2O)C(N)=O)O[C@H]1n1ccc(=O)[nH]c1=O,1 µg/mL,0.5 µg/mL,25 µg/mL,371 nM,0.5 µg/mL
CCCCCCCCOC(=O)O[C@@H]1[C@H](OC)[C@@H]([C@@H](O[C@H]2OC(C(=O)N[C@H]3CCC[C@@H](C)NC3=O)=C[C@H](O)[C@@H]2O)C(N)=O)O[C@H]1n1ccc(=O)[nH]c1=O,0.5 µg/mL,2 µg/mL,25 µg/mL,676 nM,0.25 µg/mL
CCCCCCCOC(=O)O[C@@H]1[C@H](OC)[C@@H]([C@@H](O[C@H]2OC(C(=O)N[C@H]3CCC[C@@H](C)NC3=O)=C[C@H](O)[C@@H]2O)C(N)=O)O[C@H]1n1ccc(=O)[nH]c1=O,1 µg/mL,2 µg/mL,50 µg/mL,276 nM,0.25 µg/mL
CCCCCCCCCCCC(=O)O[C@@H]1[C@H](OC)[C@@H]([C@@H](O[C@H]2OC(C(=O)N[C@H]3CCC[C@@H](C)NC3=O)=C[C@H](O)[C@@H]2O)C(N)=O)O[C@H]1n1ccc(=O)[nH]c1=O,< 0.063 µg/mL,0.5 µg/mL,1.56 µg/mL,2870 nM,< 0.063 µg/mL
CCCCCCCCCCO[C@@H]1[C@H](OC)[C@@H]([C@@H](O[C@H]2OC(C(=O)N[C@H]3CCC[C@@H](C)NC3=O)=C[C@H](O)[C@@H]2O)C(N)=O)O[C@H]1n1ccc(=O)[nH]c1=O,4 µg/mL,> 32 µg/mL,25 µg/mL,884 nM,1 µg/mL
CCCCCCCCCC(=O)O[C@@H]1[C@H](OC)[C@@H]([C@@H](O[C@H]2OC(C(=O)Nc3ccccc3)=C[C@H](O)[C@@H]2O)C(N)=O)O[C@H]1n1ccc(=O)[nH]c1=O,1 µg/mL,2 µg/mL,6.25 µg/mL,2760 nM,0.5 µg/mL
CCCCCCCC(=O)O[C@@H]1[C@H](OC)[C@@H]([C@@H](O[C@H]2OC(C(=O)N[C@H]3CCC[C@@H](C)NC3=O)=C[C@H](O)[C@@H]2O)C(N)=O)O[C@H]1n1ccc(=O)[nH]c1=O,1 µg/mL,1 µg/mL,25 µg/mL,268 nM,2 µg/mL
CCCCC(=O)O[C@@H]1[C@H](OC)[C@@H]([C@@H](O[C@H]2OC(C(=O)N[C@H]3CCC[C@@H](C)NC3=O)=C[C@H](O)[C@@H]2O)C(N)=O)O[C@H]1n1ccc(=O)[nH]c1=O,2 µg/mL,16 µg/mL,100 µg/mL,35.9 nM,32 µg/mL
CCCCCCCCCCCCCCCC(=O)O[C@@H]1[C@H](OC)[C@@H]([C@@H](O[C@H]2OC(C(=O)N[C@H]3CCC[C@@H](C)NC3=O)=C[C@H](O)[C@@H]2O)C(N)=O)O[C@H]1n1ccc(=O)[nH]c1=O,0.25 µg/mL,4 µg/mL,6.25 µg/mL,523 nM,< 0.063 µg/mL
CCCCCCCCCCCCCC(=O)O[C@@H]1[C@H](OC)[C@@H]([C@@H](O[C@H]2OC(C(=O)N[C@H]3CCC[C@@H](C)NC3=O)=C[C@H](O)[C@@H]2O)C(N)=O)O[C@H]1n1ccc(=O)[nH]c1=O,0.125 µg/mL,4 µg/mL,3.13 µg/mL,5670 nM,< 0.063 µg/mL
CCCCCCCCO[C@@H]1[C@H](OC)[C@@H]([C@@H](O[C@H]2OC(C(=O)N[C@H]3CCC[C@@H](C)NC3=O)=C[C@H](O)[C@@H]2O)C(N)=O)O[C@H]1n1ccc(=O)[nH]c1=O,2 µg/mL,> 32 µg/mL,50 µg/mL,216 nM,16 µg/mL
